This passage reports IC50 results from patent US10829478B2, “5-[3-[piperazin-1-yl]-3-oxo-propyl]-imidazolidine-2,4-dione derivatives as ADAMTS 4 and 5 inhibitors for treating e.g. osteoarthritis” (Galapagos NV, priority 2016, dated 2020).

In one assay the target is human ADAMTS4 (Homo sapiens (Human), UniProt O75173). Put plainly: hADAMTS-4 TBIS-1 cleavage assay, Protocol 2. Format: biochemical.
The target of the next assay is rnADAMTS-5 (1-564-6H) (Rattus norvegicus (Rat), UniProt Q6TY19). Put plainly: Rat ADAMTS-5 TBIS-1 cleavage assay. Format: biochemical. To be noted: 120 min at 37° C.; read-out: Rat ADAMTS-5 potency IC50.
The target in a further assay is human MMP13 (Homo sapiens (Human), UniProt P45452). Put plainly: hMMP13 assay, Protocol 1 (390 MMP FRET Substrate I, Chemicon enzyme). The format is biochemical. To be noted: Protocol 1, human MMP13 (Chemicon), read-out: hMMP-13 potency IC50. On the procedure:
Human MMP13 is preactivated by incubated the enzyme in the same buffer complemented with 1 mM freshly prepared p-Aminophenylmercuric acetate (AMPA) for 1 h at 37° C.

The target in a further assay is human ADAMTS-5 (Homo sapiens (Human), UniProt Q9UNA0). Put plainly: hADAMTS-5 TBIS-1 cleavage assay, Protocol 3. Format: biochemical. To be noted: 90 min at 37° C., read-out: hADAMTS-5 potency IC50.
Another assay concerns the target human ADAMTS6 (Homo sapiens (Human), UniProt Q9UKP5). Put plainly: hADAMTS-6 fluorescent based protease assay (520 MMP FRET substrate XII). Particulars: 37° C. for 2 h; read-out: hADAMTS-6 potency IC50. Format: biochemical. A digest of the protocol: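 ADAMTS6 (0.73 nM final) in 25 mM Tris pH 8.0, 0.05% CHAPS, 2.5 mM CaCl2 with compound dilution series (top 20 μM, 1/5 steps). Reaction started with 520 MMP FRET Substrate XII, incubated 2 h at 37 °C. Substrate cleavage read by fluorescence ex485/em530; IC50 determined.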

The target in a further assay is human TACE (Homo sapiens (Human), UniProt P78536). Put plainly: biochemical.
[1] abbreviates: Protocol 2, 180 min at 37° C., read-out: ADAMTS4 potency IC50.

The structures appear in SMILES notation. Where two headings read alike, the source gives them in different places. Some results are limits rather than exact numbers.

human ADAMTS4, sequence (O75173 213-837): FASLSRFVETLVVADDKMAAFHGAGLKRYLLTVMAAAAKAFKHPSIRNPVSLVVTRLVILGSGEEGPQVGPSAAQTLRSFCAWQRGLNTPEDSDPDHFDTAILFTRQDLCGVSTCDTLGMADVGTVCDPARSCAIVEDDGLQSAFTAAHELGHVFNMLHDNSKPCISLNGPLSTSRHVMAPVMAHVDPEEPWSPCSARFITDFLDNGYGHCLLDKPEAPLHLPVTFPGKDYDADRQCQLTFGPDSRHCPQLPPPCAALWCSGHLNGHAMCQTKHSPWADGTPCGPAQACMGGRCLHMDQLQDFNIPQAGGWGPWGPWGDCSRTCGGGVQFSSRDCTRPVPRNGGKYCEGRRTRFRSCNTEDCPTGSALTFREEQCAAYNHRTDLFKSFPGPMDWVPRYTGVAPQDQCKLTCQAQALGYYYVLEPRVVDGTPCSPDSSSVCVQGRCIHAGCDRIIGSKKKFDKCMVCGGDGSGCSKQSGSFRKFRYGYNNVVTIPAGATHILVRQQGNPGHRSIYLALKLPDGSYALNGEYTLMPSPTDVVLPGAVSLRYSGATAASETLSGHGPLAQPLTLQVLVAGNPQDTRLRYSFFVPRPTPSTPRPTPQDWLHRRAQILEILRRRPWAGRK
human TACE, sequence (P78536 215-671): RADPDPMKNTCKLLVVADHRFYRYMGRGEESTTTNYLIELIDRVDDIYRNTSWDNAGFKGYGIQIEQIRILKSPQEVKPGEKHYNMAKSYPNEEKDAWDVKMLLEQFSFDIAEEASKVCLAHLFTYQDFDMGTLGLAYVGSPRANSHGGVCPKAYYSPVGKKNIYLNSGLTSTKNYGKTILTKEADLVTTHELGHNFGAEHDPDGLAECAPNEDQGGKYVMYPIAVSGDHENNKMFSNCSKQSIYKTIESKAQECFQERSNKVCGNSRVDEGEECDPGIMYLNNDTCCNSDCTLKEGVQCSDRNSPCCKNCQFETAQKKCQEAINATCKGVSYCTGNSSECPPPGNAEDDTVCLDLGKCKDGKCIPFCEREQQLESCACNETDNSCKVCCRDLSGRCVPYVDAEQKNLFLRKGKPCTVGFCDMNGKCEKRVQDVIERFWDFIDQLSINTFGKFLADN
human ADAMTS6, sequence (Q9UKP5 other isoform, or with tags, fused parts or gaps): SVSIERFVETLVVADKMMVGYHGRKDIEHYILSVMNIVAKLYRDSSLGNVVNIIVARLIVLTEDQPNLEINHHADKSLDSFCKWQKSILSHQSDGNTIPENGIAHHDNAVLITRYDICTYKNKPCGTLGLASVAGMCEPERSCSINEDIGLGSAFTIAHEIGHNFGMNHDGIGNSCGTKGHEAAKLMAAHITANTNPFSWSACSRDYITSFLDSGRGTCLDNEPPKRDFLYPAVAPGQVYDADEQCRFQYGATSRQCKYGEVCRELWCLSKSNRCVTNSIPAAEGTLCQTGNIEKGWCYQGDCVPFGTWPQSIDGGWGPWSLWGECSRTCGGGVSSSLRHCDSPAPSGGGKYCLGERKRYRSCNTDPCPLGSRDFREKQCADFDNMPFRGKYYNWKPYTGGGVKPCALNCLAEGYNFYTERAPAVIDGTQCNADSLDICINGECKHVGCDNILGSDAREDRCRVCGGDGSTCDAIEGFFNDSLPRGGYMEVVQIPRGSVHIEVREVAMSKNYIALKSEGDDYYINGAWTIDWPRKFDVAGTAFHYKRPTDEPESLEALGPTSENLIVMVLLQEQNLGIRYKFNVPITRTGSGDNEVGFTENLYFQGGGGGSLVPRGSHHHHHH
human ADAMTS-5, sequence (Q9UNA0 262-930): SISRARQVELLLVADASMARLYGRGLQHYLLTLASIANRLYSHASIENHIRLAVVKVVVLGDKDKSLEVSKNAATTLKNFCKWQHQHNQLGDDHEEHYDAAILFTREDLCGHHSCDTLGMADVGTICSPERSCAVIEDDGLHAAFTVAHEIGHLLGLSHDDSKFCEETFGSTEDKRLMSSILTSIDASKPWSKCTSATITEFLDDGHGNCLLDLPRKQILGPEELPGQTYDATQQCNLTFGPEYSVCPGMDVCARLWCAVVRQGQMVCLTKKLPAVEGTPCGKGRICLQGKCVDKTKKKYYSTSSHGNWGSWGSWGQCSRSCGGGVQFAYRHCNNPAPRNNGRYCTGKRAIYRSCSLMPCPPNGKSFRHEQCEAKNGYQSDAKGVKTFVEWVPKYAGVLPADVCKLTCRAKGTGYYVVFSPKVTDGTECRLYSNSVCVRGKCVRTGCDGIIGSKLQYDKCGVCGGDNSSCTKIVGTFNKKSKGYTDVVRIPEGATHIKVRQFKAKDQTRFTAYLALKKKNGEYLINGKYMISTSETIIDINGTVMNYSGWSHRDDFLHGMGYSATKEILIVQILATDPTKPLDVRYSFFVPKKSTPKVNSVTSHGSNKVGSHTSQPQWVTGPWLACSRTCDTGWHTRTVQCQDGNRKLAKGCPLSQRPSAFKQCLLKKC
rnADAMTS-5 (1-564-6H), sequence (Q6TY19 entry or part of it): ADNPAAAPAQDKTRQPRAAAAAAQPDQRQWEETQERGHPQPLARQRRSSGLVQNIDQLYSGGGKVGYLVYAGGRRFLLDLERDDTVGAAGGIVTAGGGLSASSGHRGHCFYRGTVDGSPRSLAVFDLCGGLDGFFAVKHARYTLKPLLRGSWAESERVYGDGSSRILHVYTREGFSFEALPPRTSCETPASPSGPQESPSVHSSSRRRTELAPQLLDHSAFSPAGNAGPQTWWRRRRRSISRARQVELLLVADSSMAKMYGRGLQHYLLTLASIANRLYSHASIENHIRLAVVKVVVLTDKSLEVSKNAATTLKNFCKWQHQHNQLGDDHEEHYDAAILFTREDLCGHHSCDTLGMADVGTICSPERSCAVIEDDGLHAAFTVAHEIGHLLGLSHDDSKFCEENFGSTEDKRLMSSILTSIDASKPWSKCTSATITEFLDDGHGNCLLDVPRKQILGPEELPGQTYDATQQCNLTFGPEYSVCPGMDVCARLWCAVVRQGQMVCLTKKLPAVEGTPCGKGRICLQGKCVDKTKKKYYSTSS
Method for human ADAMTS-5: The reaction is initiated by adding to the assay plate TBIS-1 (10 μL, 4.5 μM, Anaspec) in the same buffer.
Finally, the fluorescence is read on the Envision (Perkin Elmer) after an incubation of 90 min at 37° C. (Excitation 485 nm, emission 530).
Method for human TACE: Finally, the fluorescence is read on the Envision (Perkin Elmer) after an incubation of 75 min at room temperature (Excitation 485 nm, Emission 530).

As to `COc1cc(N2CCN(C(=O)CC[C@H]3NC(=O)NC3=O)C[C@@H]2C)c(C)cc1Cl` [Cpd 142, (5R)-5-[3-[(3S)-4-(4-chloro-5-methoxy-2-methyl-phenyl)-3-methyl-piperazin-1-yl]-3-oxo-propyl]imidazolidine-2,4-dione], the IC50 – broadly, the concentration that gives 50% inhibition – on human ADAMTS4 (setting [1]) is above 100 nM; at rnADAMTS-5 (1-564-6H) it was above 100 nM; at human MMP13, above 100 nM; at human ADAMTS-5, above 100 nM; at human ADAMTS6 it was 50 to 100 nM; against human TACE it was above 100 nM.
For `COc1cc(F)cc(N2CCN(C(=O)CCC3(c4cccnc4)NC(=O)NC3=O)CC2)c1` (stereo not drawn) [Cpd 23, 5-[3-[4-(3-fluoro-5-methoxy-phenyl)piperazin-1-yl]-3-oxo-propyl]-5-(3-pyridyl)imidazolidine-2,4-dione], the IC50 against human ADAMTS4 was 50 to 100 nM; on rnADAMTS-5 (1-564-6H), 50 to 100 nM; on human MMP13 it was above 100 nM; at human ADAMTS-5, 50 to 100 nM; at human ADAMTS6, 25 to 50 nM; on human TACE, above 100 nM.
As for `COc1cc(N2CCN(C(=O)CCC3(C)NC(=O)NC3=O)CC2)c(C)cc1Cl` (stereo not drawn) [Cpd 34, 5-[3-[4-(4-chloro-5-methoxy-2-methyl-phenyl)piperazin-1-yl]-3-oxo-propyl]-5-methyl-imidazolidine-2,4-dione], the IC50 is above 100 nM on human ADAMTS4 (setting [1]); above 100 nM on rnADAMTS-5 (1-564-6H); above 100 nM on human MMP13; above 100 nM on human ADAMTS-5; 25 to 50 nM on human ADAMTS6; above 100 nM at human TACE.
Consider `COc1cc(N2CCN(C(=O)CC[C@H]3NC(=O)NC3=O)C[C@@H]2C)cc(F)c1F` [Cpd 129, (5R)-5-[3-[(3S)-4-(3,4-difluoro-5-methoxy-phenyl)-3-methyl-piperazin-1-yl]-3-oxo-propyl]imidazolidine-2,4-dione], for which the IC50 is above 100 nM at human ADAMTS4 (setting [1]); above 100 nM at rnADAMTS-5 (1-564-6H); above 100 nM at human MMP13; above 100 nM at human ADAMTS-5; 0.001 to 25 nM at human ADAMTS6; above 100 nM against human TACE.
As for `COc1cc(N2CCN(C(=O)CCC3(C)NC(=O)NC3=O)C[C@@H]2C)cc(F)c1Cl` (stereo partly drawn) [Cpd 39, 5-[3-[(3S)-4-(4-chloro-3-fluoro-5-methoxy-phenyl)-3-methyl-piperazin-1-yl]-3-oxo-propyl]-5-methyl-imidazolidine-2,4-dione], the IC50 on human ADAMTS4 (setting [1]) is above 100 nM; on rnADAMTS-5 (1-564-6H), 50 to 100 nM; at human MMP13, above 100 nM; at human ADAMTS-5, 50 to 100 nM; on human ADAMTS6, 0.001 to 25 nM; against human TACE, above 100 nM.
As to `COc1cc(N2CCN(C(=O)CCC3(C)NC(=O)NC3=O)CC2)cc(F)c1Cl` (stereo not drawn) [Cpd 38, 5-[3-[4-(4-chloro-3-fluoro-5-methoxy-phenyl)piperazin-1-yl]-3-oxo-propyl]-5-methyl-imidazolidine-2,4-dione], the IC50 is above 100 nM at human ADAMTS4 (setting [1]); 50 to 100 nM at rnADAMTS-5 (1-564-6H); above 100 nM on human MMP13; above 100 nM on human ADAMTS-5; 0.001 to 25 nM at human ADAMTS6; above 100 nM at human TACE.
With `COc1cc(OC)cc(N2CCN(C(=O)CCC3(C)NC(=O)NC3=O)C[C@@H]2C)c1` (stereo partly drawn) [Cpd 25, 5-[3-[(3 S)-4-(3,5-dimethoxyphenyl)-3-methyl-piperazin-1-yl]-3-oxo-propyl]-5-methyl-imidazolidine-2,4-dione], the IC50 is above 100 nM at human ADAMTS4 (setting [1]); above 100 nM at rnADAMTS-5 (1-564-6H); above 100 nM on human MMP13; above 100 nM at human ADAMTS-5; 25 to 50 nM at human ADAMTS6; above 100 nM on human TACE.
Regarding `COc1cc(N2CCN(C(=O)[C@@H](C)C[C@@]3(C4CC4)NC(=O)NC3=O)C[C@@H]2C)cc(F)c1F` [Cpd 29, 5-cyclopropyl-5-[(2S)-3-[(3S)-4-(3,4-difluoro-5-methoxy-phenyl)-3-methyl-piperazin-1-yl]-2-methyl-3-oxo-propyl]imidazolidine-2,4-dione], the IC50 against human ADAMTS4 is 25 to 50 nM; on rnADAMTS-5 (1-564-6H), 25 to 50 nM; at human MMP13 it was above 100 nM; on human ADAMTS-5, 25 to 50 nM; on human ADAMTS6, 0.001 to 25 nM; against human TACE, above 100 nM.
As for `COc1cc(N2CCN(C(=O)CC[C@H]3NC(=O)NC3=O)CC2)cc(OC)c1Cl` [Cpd 135, (5R)-5-[3-[4-(4-chloro-3,5-dimethoxy-phenyl)piperazin-1-yl]-3-oxo-propyl]imidazolidine-2,4-dione], the IC50 on human ADAMTS4 (setting [1]) was above 100 nM; on rnADAMTS-5 (1-564-6H), above 100 nM; at human MMP13, above 100 nM; at human ADAMTS-5 it was above 100 nM; on human ADAMTS6, 0.001 to 25 nM; against human TACE, above 100 nM.
As for `COc1cc(N2CCN(C(=O)CCC3(C)NC(=O)NC3=O)C[C@@H]2C)cc(OC)c1Cl` (stereo partly drawn) [Cpd 30, 5-[3-[(3 S)-4-(4-chloro-3,5-dimethoxy-phenyl)-3-methyl-piperazin-1-yl]-3-oxo-propyl]-5-methyl-imidazolidine-2,4-dione], the IC50 at human ADAMTS4 (setting [1]) was above 100 nM; on rnADAMTS-5 (1-564-6H) it was above 100 nM; at human MMP13 it was above 100 nM; at human ADAMTS-5, above 100 nM; on human ADAMTS6 it was 0.001 to 25 nM; on human TACE, above 100 nM.
For the compound `COc1cc(N2CCN(C(=O)CCC3(C)NC(=O)NC3=O)CC2)cc(OC)c1Cl` (stereo not drawn) [Cpd 31, 5-[3-[4-(4-chloro-3,5-dimethoxy-phenyl)piperazin-1-yl]-3-oxo-propyl]-5-methyl-imidazolidine-2,4-dione], the IC50 at human ADAMTS4 (setting [1]) was above 100 nM; on rnADAMTS-5 (1-564-6H), above 100 nM; at human MMP13 it was above 100 nM; on human ADAMTS-5, above 100 nM; on human ADAMTS6, 0.001 to 25 nM; at human TACE, above 100 nM.
Regarding `COc1cc(N2CCN(C(=O)CC[C@H]3NC(=O)NC3=O)C[C@@H]2C)ccc1Cl` [Cpd 133, (5R)-5-[3-[(3 S)-4-(4-chloro-3-methoxy-phenyl)-3-methyl-piperazin-1-yl]-3-oxo-propyl]imidazolidine-2,4-dione], the IC50 is above 100 nM on human ADAMTS4 (setting [1]); above 100 nM on rnADAMTS-5 (1-564-6H); above 100 nM at human MMP13; above 100 nM on human ADAMTS-5; 0.001 to 25 nM on human ADAMTS6; above 100 nM against human TACE.
In the case of `COc1cc(N2CCN(C(=O)CCC3(c4cccnc4)NC(=O)NC3=O)CC2)cc(F)c1F` (stereo not drawn) [Cpd 28, 5-[3-[4-(3,4-difluoro-5-methoxy-phenyl)piperazin-1-yl]-3-oxo-propyl]-5-(3-pyridyl)imidazolidine-2,4-dione], the IC50 is above 100 nM on human ADAMTS4 (setting [1]); 50 to 100 nM at rnADAMTS-5 (1-564-6H); above 100 nM at human MMP13; above 100 nM on human ADAMTS-5; 25 to 50 nM at human ADAMTS6; above 100 nM against human TACE.
As for `COc1cc(F)cc(N2CCN(C(=O)[C@H](C)C[C@@]3(C4CC4)NC(=O)NC3=O)CC2)c1` (stereo in doubt) [Cpd 130, 5-cyclopropyl-5-[3-[4-(3-fluoro-5-methoxy-phenyl)piperazin-1-yl]-2-methyl-3-oxo-propyl]imidazolidine-2,4-dione], the IC50 at rnADAMTS-5 (1-564-6H), on human ADAMTS-5 and on human ADAMTS6 was above 100 nM in each case.
Consider `COc1cc(N2CCN(C(=O)CCC3(C4CC4)NC(=O)NC3=O)C[C@@H]2C)cc(F)c1F` (stereo partly drawn) [Cpd 21, 5-cyclopropyl-5-[3-[(3S)-4-(3,4-difluoro-5-methoxy-phenyl)-3-methyl-piperazin-1-yl]-3-oxo-propyl]imidazolidine-2,4-dione], for which the IC50 at human ADAMTS4 is 50 to 100 nM; on rnADAMTS-5 (1-564-6H) it was 0.001 to 25 nM; at human MMP13, above 100 nM; on human ADAMTS-5, 0.001 to 25 nM; at human ADAMTS6, 0.001 to 25 nM; at human TACE, above 100 nM.
For the compound `COc1cc(N2CCN(C(=O)CCC3(C)NC(=O)NC3=O)C[C@@H]2C)c(C)cc1Cl` (stereo partly drawn) [Cpd 36, 5-[3-[(3 S)-4-(4-chloro-5-methoxy-2-methyl-phenyl)-3-methyl-piperazin-1-yl]-3-oxo-propyl]-5-methyl-imidazolidine-2,4-dione], the half-maximal inhibitory concentration (IC50) is above 100 nM on human ADAMTS4 (setting [1]); above 100 nM on rnADAMTS-5 (1-564-6H); above 100 nM at human MMP13; above 100 nM at human ADAMTS-5; 25 to 50 nM on human ADAMTS6; above 100 nM against human TACE.
With `COc1cc(N2CCN(C(=O)CC[C@H]3NC(=O)NC3=O)C[C@@H]2C)cc(OC)c1Cl` [Cpd 139, (5R)-5-[3-[(3 S)-4-(4-chloro-3,5-dimethoxy-phenyl)-3-methyl-piperazin-1-yl]-3-oxo-propyl]imidazolidine-2,4-dione], the IC50 is above 100 nM at human ADAMTS4 (setting [1]); 50 to 100 nM on rnADAMTS-5 (1-564-6H); above 100 nM on human MMP13; above 100 nM at human ADAMTS-5; 0.001 to 25 nM at human ADAMTS6; above 100 nM at human TACE.
For the compound `COc1cc(F)cc(N2CCN(C(=O)[C@@H](C)C[C@@]3(C)NC(=O)NC3=O)CC2)c1` [Cpd 27, (5R)-5-[(2S)-3-[4-(3-fluoro-5-methoxy-phenyl)piperazin-1-yl]-2-methyl-3-oxo-propyl]-5-methyl-imidazolidine-2,4-dione], the IC50 against human ADAMTS4 is 25 to 50 nM; at rnADAMTS-5 (1-564-6H), 25 to 50 nM; at human MMP13, above 100 nM; on human ADAMTS-5, 25 to 50 nM; at human ADAMTS6, 0.001 to 25 nM; against human TACE, above 100 nM.
